Measurements published in patent US4464373A, “4,5-Dihydroimidazo-[1,2-a]quinoxaline-2-carboxylic acids and their derivatives with antiallergic activity” (Roussel Uclaf, priority 1982, dated 1984).

System: passive cutaneous reaction mediated by Ig G antibodies
Experiment: Passive cutaneous anaphylaxis of the rat (PCR), Ig G mediated, oral
Format: in vivo
Conditions: male Wistar rats, ovalbumin challenge
Experimental: Passive cutaneous anaphylaxis of the rat (PCR)
Passive cutaneous anaphylaxis in the rat was carried out with male Wistar rats weighing 180-200 g which were sensitized by intradermal injection into four sites on the shaved back to produce a passive cutaneous reaction mediated by Ig G antibodies (a 4 hour sensitization following injection of antiserum heated at 56° C. for one hour). Antigen challenge was carried out in the same way; 1 mg of ovalbumen together with 0.5 ml of 1% Evans blue dye solution were injected intravenously and 30 minutes later, the animals were killed and the severity and area of each blue spot was scored when viewed from the reverse side of the skin.

SMILES	inhibition in vivo at 0.1 mg/kg	inhibition in vivo at 1 mg/kg
CCOC(=O)c1cn2c(n1)CN(C(=O)OCC)c1ccccc1-2 [Example 3, Diethyl 4,5-dihydroimidazo[1,2-a]quinoxaline-2,5-dicarboxylate]	26.3%	67.5%
CCOC(=O)c1cn2c(n1)CN(C(=O)Nc1ccccc1)c1ccccc1-2 [Example 4, Ethyl 4,5-dihydro-5-(phenylcarboxamido)imidazo[1,2-a]quinoxaline-2-carboxylate]		5.2%
CCOC(=O)c1cn2c(n1)CN(C(=O)NCCN1CCOCC1)c1ccccc1-2 [Example 5B, Ethyl 4,5-dihydro-5-(morpholinoethylcarboxamido)imidazo[1,2-a]quinoxaline-2-carboxylate]		33.8%
COC(=O)N1Cc2nc(C(=O)O)cn2-c2ccccc21 [Example 6, 4,5-dihydro-5-(methoxycarbonyl)imidazo[1,2-a]quinoxaline-2-carboxylic acid]	19%	61.1%
CCOC(=O)c1cn2c(n1)CN(C(C)=O)c1ccccc1-2 [Example 7, Ethyl 5-acetyl-4,5-dihydroimidazo[1,2-a]quinoxaline-2-carboxylate]	32.5%	49.4%
CCOC(=O)c1cn2c(n1)CN(C(=O)OCc1ccccc1)c1ccccc1-2 [Example 8, Ethyl 4,5-dihydro-5-(benzyloxycarbonyl)imidazo[1,2-a]quinoxaline-2-carboxylate]		14.3%
CCOC(=O)c1cn2c(n1)CN(C(=O)OC)c1ccccc1-2 [Example 9, Ethyl 4,5-dihydro-5-(methoxycarbonyl)imidazo[1,2-a]quinoxaline-2-carboxylate]	18.8%	75.6%
CCCOC(=O)N1Cc2nc(C(=O)OCC)cn2-c2ccccc21 [Example 11, Ethyl 4,5-dihydro-5-(propyloxycarbonyl)imidazo[1,2-a]quinoxaline-2-carboxylate]		44%
CCCCOC(=O)N1Cc2nc(C(=O)OCC)cn2-c2ccccc21 [Example 12, Ethyl 4,5-dihydro-5-(butyloxycarbonyl)imidazo[1,2-a]quinoxaline-2-carboxylate]		26.2%
CCOC(=O)c1cn2c(n1)CN(C(=O)NCCN(CC)CC)c1ccccc1-2 [Example 14, Ethyl 4,5-dihydro-5-(diethylaminoethylcarboxamido)imidazo[1,2-a]quinoxaline-2-carboxylate]	16.8%	42.8%
